CC[C@@]1(O)C(=O)OCc2c1cc1n(c2=O)Cc2cc3ccccc3nc2-1
Settings | solubility (mole fraction)
in chloroform, 275.76 K | 0.000222
in chloroform, 279.07 K | 0.000246
in chloroform, 282.38 K | 0.000272
in chloroform, 285.02 K | 0.000288
in chloroform, 287.55 K | 0.000308
in chloroform, 291.19 K | 0.000332
in chloroform, 294.18 K | 0.000354
in chloroform, 297.25 K | 0.000375
in chloroform, 300.57 K | 0.000404
in chloroform, 303.1 K | 0.000421
in chloroform, 305.96 K | 0.000441
in chloroform, 308.51 K | 0.000465
in chloroform, 311.59 K | 0.000489
in chloroform, 315.12 K | 0.000513
in chloroform, 318.31 K | 0.000544
in chloroform, 322.39 K | 0.000575
in chloroform, 326.25 K | 0.000613
in ethanol, 277.98 K | 9.03e-06
in ethanol, 281.62 K | 1.08e-05
in ethanol, 284.67 K | 1.25e-05
in ethanol, 287.95 K | 1.39e-05
in ethanol, 291 K | 1.6e-05
in ethanol, 294.63 K | 1.78e-05
in ethanol, 297.81 K | 2.01e-05
in ethanol, 301.09 K | 2.24e-05
in ethanol, 304.26 K | 2.46e-05
in ethanol, 307.54 K | 2.76e-05
in ethanol, 310.47 K | 3.06e-05
in ethanol, 313.63 K | 3.33e-05
in ethanol, 316.57 K | 3.68e-05
in ethanol, 319.26 K | 4.01e-05
in ethanol, 321.7 K | 4.31e-05
in ethanol, 324.43 K | 4.64e-05
in ethanol, 326.3 K | 4.91e-05
in methanol, 277.52 K | 1.27e-05
in methanol, 280.45 K | 1.43e-05
in methanol, 283.37 K | 1.57e-05
in methanol, 286.2 K | 1.72e-05
in methanol, 289.49 K | 1.95e-05
in methanol, 293.24 K | 2.2e-05
in methanol, 296.6 K | 2.49e-05
in methanol, 299.68 K | 2.74e-05
in methanol, 302.78 K | 3.03e-05
in methanol, 305.61 K | 3.35e-05
in methanol, 308.45 K | 3.66e-05
in methanol, 311.02 K | 4e-05
in methanol, 313.77 K | 4.37e-05
in methanol, 316.53 K | 4.78e-05
in methanol, 319.02 K | 5.2e-05
in methanol, 321.42 K | 5.59e-05
in methanol, 323.48 K | 5.95e-05

Reference: BigSolDB 2.1
